The results in this text go back to paper PMC6128917, “Implications for the impairment of the rapid channel closing of Proteomonas sulcata anion channelrhodopsin 1 at high Cl^− concentrations” (Scientific Reports, 2018).

In this experiment the target is T1, PsuACR1 (PsACR1).
T1 construct: 291 residues plus C-terminal His8 kept (299 residues in total)
In words: UV-visible absorption titration, λmax red-shift fitted with Hill equation (n = […] fixed). It is filed as binding, Proteomonas sulcata. The following applies: 10 mM MOPS pH 7.0, 25 °C; ionic strength kept at 1,000 mM with Na2SO4; initial (unphotolysed) state.

Regarding `Cl` [Cl^−], the equilibrium dissociation constant (Kd) is 5.5 ± 1.6 mM.

By Kd is commonly meant a measure of binding affinity in units of concentration.
